Reference: patent US11071731B2, “Allosteric modulators of the mu opioid receptor” (Chiromics, LLC, priority 2017, dated 2021)

What was measured:
mu opioid receptor (MOR) [1] = biological target: T1, mu opioid receptor (MOR) (Homo sapiens, UniProt P35372); test: PathHunter β-arrestin recruitment assay, PAM mode with EC20 endomorphin-1; type: cell-based; details: for EC50: read-out: β-arr. EC50
How it was run: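 Enzyme fragment complementation read-out: β-gal ED fragment fused to receptor, EA fused to β-arrestin, recruitment restoring β-gal activity detected by chemiluminescence. EC50 and percent maximal response derived for each compound.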

mu opioid receptor (MOR) [2] = biological target: T1, mu opioid receptor (MOR); test: Hit Hunter cAMP signaling assay (adenylyl cyclase inhibition), PAM mode with EC20 endomorphin-1; type: cell-based
[3] = maximal response for β-arrestin recruitment
[4] = adenylyl cyclase inhibition, read-out: cAMP EC50
[5] = maximal response for adenylyl cyclase inhibition
[6] = cAMP EC50, adenylyl cyclase inhibition

T1 sequence (P35372 whole entry, the tested form may be a part): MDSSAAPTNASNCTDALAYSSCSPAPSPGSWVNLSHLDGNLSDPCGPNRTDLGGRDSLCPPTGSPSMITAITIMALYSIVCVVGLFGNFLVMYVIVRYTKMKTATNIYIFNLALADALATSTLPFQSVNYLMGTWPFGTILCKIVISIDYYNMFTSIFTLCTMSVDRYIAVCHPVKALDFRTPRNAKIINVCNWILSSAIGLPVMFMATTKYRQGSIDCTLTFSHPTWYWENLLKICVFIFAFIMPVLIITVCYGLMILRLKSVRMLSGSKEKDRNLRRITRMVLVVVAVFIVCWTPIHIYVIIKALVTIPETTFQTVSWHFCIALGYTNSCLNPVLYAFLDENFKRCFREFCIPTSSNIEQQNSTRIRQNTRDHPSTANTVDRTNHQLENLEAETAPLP

O=S(=O)(Cc1ccc(Cl)cc1)N1CCCCC1c1cccc(C(F)(F)F)c1 (stereo not shown) [Compound 22]
β-arr Max. Resp. (mu opioid receptor (MOR) [1]; [3]): F (F represents a maximal response of > 60%) | EC50 (mu opioid receptor (MOR) [1]; β-arrestin recruitment): > 2100 nM | EC50 (mu opioid receptor (MOR) [2]; [4]): > 2100 nM | cAMP Max. Resp. (mu opioid receptor (MOR) [2]; [5]): D (D represents a maximal response of < 40%)

Fc1cc(C2COCCN2c2nc(Cl)ncc2F)cc(C(F)(F)F)c1 (single isomer, unassigned) [Compound 347]
β-arr Max. Resp. (mu opioid receptor (MOR) [1]; [3]): D (D represents a maximal response of < 40%) | EC50 (mu opioid receptor (MOR) [1]; β-arrestin recruitment): < 700 nM | EC50 (mu opioid receptor (MOR) [2]; [4]): < 700 nM | cAMP Max. Resp. (mu opioid receptor (MOR) [2]; [5]): D (D represents a maximal response of < 40%)

Fc1cnc(Cl)nc1N1CCCCC1c1cccc2cnnn12 (stereo not shown) [compound 333]
β-arr Max. Resp. (mu opioid receptor (MOR) [1]; [3]): D (D represents a maximal response of < 40%) | EC50 (mu opioid receptor (MOR) [1]; β-arrestin recruitment): < 700 nM | EC50 (mu opioid receptor (MOR) [2]; [6]): < 700 nM | cAMP Max. Resp. (mu opioid receptor (MOR) [2]; [5]): D (D represents a maximal response of < 40%)

Fc1ccc(C(F)(F)F)cc1C1CCCCN1c1ccnc(Cl)n1 (stereo not shown) [compound 403]
β-arr Max. Resp. (mu opioid receptor (MOR) [1]; [3]): D (D represents a maximal response of < 40%) | EC50 (mu opioid receptor (MOR) [1]; β-arrestin recruitment): < 700 nM | EC50 (mu opioid receptor (MOR) [2]; [6]): < 700 nM | cAMP Max. Resp. (mu opioid receptor (MOR) [2]; [5]): D (D represents a maximal response of < 40%)

CC1CC(c2cccc(C(F)(F)F)c2)N(c2nc(Cl)ncc2F)C1 (stereo not shown) [compound 448]
β-arr Max. Resp. (mu opioid receptor (MOR) [1]; maximal response, β-arrestin recruitment): F (F represents a maximal response of > 60%) | EC50 (mu opioid receptor (MOR) [1]; β-arrestin recruitment): > 2100 nM | EC50 (mu opioid receptor (MOR) [2]; [4]): > 2100 nM | cAMP Max. Resp. (mu opioid receptor (MOR) [2]; maximal response, adenylyl cyclase inhibition): D (D represents a maximal response of < 40%)

Fc1cc(C2CCC(F)CN2c2nc(Cl)ncc2F)cc(C(F)(F)F)c1 (stereo not shown) [compound 312]
β-arr Max. Resp. (mu opioid receptor (MOR) [1]; [3]): F (F represents a maximal response of > 60%) | EC50 (mu opioid receptor (MOR) [1]; β-arrestin recruitment): < 700 nM | EC50 (mu opioid receptor (MOR) [2]; [4]): < 700 nM | cAMP Max. Resp. (mu opioid receptor (MOR) [2]; [5]): F (F represents a maximal response of > 60%)

OC1CCN(c2nc(Cl)ncc2F)C(c2ccc(F)c(Br)c2)C1 (stereo not shown) [compound 241]
β-arr Max. Resp. (mu opioid receptor (MOR) [1]; [3]): F (F represents a maximal response of > 60%) | EC50 (mu opioid receptor (MOR) [1]; β-arrestin recruitment): > 2100 nM | EC50 (mu opioid receptor (MOR) [2]; [6]): > 2100 nM | cAMP Max. Resp. (mu opioid receptor (MOR) [2]; [5]): E (E represents a maximal response of 40-60%)

O=S(=O)(Cc1ccc(Cl)c(Cl)c1)N1CCCCC1c1cccc(C(F)(F)F)c1 (stereo not shown) [Compound 23]
β-arr Max. Resp. (mu opioid receptor (MOR) [1]; [3]): F (F represents a maximal response of > 60%) | EC50 (mu opioid receptor (MOR) [1]; β-arrestin recruitment): > 2100 nM | EC50 (mu opioid receptor (MOR) [2]; [4]): > 2100 nM | cAMP Max. Resp. (mu opioid receptor (MOR) [2]; [5]): D (D represents a maximal response of < 40%)

C=C1CCN(c2nc(Cl)ncc2F)C(c2cc(F)cc(C(F)(F)F)c2)C1 (stereo not shown) [compound 200]
β-arr Max. Resp. (mu opioid receptor (MOR) [1]; [3]): F (F represents a maximal response of > 60%) | EC50 (mu opioid receptor (MOR) [1]; β-arrestin recruitment): < 700 nM | EC50 (mu opioid receptor (MOR) [2]; [6]): < 700 nM | cAMP Max. Resp. (mu opioid receptor (MOR) [2]; [5]): E (E represents a maximal response of 40-60%)

COc1ccc(C2N(S(=O)(=O)c3ccc(Cl)cc3)CCC2(F)C(F)(F)F)cc1Br (mixture of isomers) [Compound 103]
β-arr Max. Resp. (mu opioid receptor (MOR) [1]; [3]): F (F represents a maximal response of > 60%) | EC50 (mu opioid receptor (MOR) [1]; β-arrestin recruitment): > 2100 nM | EC50 (mu opioid receptor (MOR) [2]; [4]): 700 to 2100 nM | cAMP Max. Resp. (mu opioid receptor (MOR) [2]; [5]): D (D represents a maximal response of < 40%)

COc1ccc(C2C(F)CCCN2S(=O)(=O)c2ccc(Cl)cc2)cc1Br (stereo not shown) [compound 219]
allosteric activity for β-arrestin recruitment (mu opioid receptor (MOR) [1]; EC20 endomorphin-1 concentration of 4.5 nM): low positive allosteric activity | signaling preference β-arrestin vs cAMP (mu opioid receptor (MOR) [1]; comparison of β-arrestin and cAMP assays): preferential signaling via cAMP over β-arrestin | β-arr Max. Resp. (mu opioid receptor (MOR) [1]; [3]): F (F represents a maximal response of > 60%) | EC50 (mu opioid receptor (MOR) [1]; β-arrestin recruitment): 700 to 2100 nM | allosteric activity for cAMP signaling (mu opioid receptor (MOR) [2]; EC20 endomorphin-1 concentration of 0.45 nM): high positive allosteric activity | EC50 (mu opioid receptor (MOR) [2]; [6]): < 700 nM | cAMP Max. Resp. (mu opioid receptor (MOR) [2]; [5]): F (F represents a maximal response of > 60%)

CN(C)CC(=O)N1CCN(c2nc(Cl)ncc2F)C(c2cc(F)cc(C(F)(F)F)c2)C1 (racemic) [Compound 306]
β-arr Max. Resp. (mu opioid receptor (MOR) [1]; [3]): D (D represents a maximal response of < 40%) | EC50 (mu opioid receptor (MOR) [1]; β-arrestin recruitment): > 2100 nM | EC50 (mu opioid receptor (MOR) [2]; [4]): > 2100 nM | cAMP Max. Resp. (mu opioid receptor (MOR) [2]; [5]): F (F represents a maximal response of > 60%)

Fc1ccc(C2CCCCN2c2nc(Cl)ncc2F)cc1Cl (single isomer, unassigned) [compound 10]
β-arr Max. Resp. (mu opioid receptor (MOR) [1]; [3]): F (F represents a maximal response of > 60%) | EC50 (mu opioid receptor (MOR) [1]; β-arrestin recruitment): < 700 nM | EC50 (mu opioid receptor (MOR) [2]; [6]): < 700 nM | cAMP Max. Resp. (mu opioid receptor (MOR) [2]; [5]): E (E represents a maximal response of 40-60%)
